Assay results published in patent US11235020B2, “Methods and compositions for inhibiting glyoxalase 1 (GLO1)” (priority 2013, dated 2022).

Legend:
[1] = system: GABAA receptors in hippocampal neurons; test: Whole-cell patch clamp in hippocampal neurons (HN); format: cell-based, rat; conditions: for increase of GABA-evoked currents: 500 nM modulator co-applied with 10 μM GABA; for increase of MG-evoked currents: 500 nM modulator co-applied with 10 μM MG
Procedure: (§1) Reagents: All reagents were obtained from Sigma-Aldrich.
Neurons were maintained in neurobasal medium with B27 supplement and glutamax in a humidified atmosphere with 5% CO2 at 37° C.
(§2) Filter and sampling frequencies were 5 and 25 kHz, respectively, for voltage-clamp experiments and 1 and 10 kHz, respectively, for current-clamp recording. Experiments were performed at 32° C. using a feedback-controlled heated perfusion system (Warner Instruments). Vm, ligand-gated currents, and potassium channel currents were studied in a bath solution containing 1 mM CaCl2, 1 mM MgCl2, 4 mM KCl, 140 mM NaCl, 5 mM glucose, and 10 mM HEPES (pH 7.4). […] Electrodes were coated with Sigmacote (Sigma) prior to use.
(§3) Ligand-gated currents: Ligand-gated currents were studied in voltage-clamp mode by application of reagents to cells held at −50 mV.

locomotion in Cd-1 mice = test: Open field test after i.p. glyceraldehyde; format: in vivo, mouse; conditions: GA i.p., tested 10 min after injection
Procedure: GA is rapidly converted into MG. Cd-1 mice (Charles River, Portage Mich.) were treated i.p. With vehicle (0.9% NaCl) or GA at the indicated doses. Ten minutes after injection, mice were tested in the open field (OF) test (locomotor chambers). Behavioral data were collected at 5 and 10 minutes. Because vehicle-treated mice differed in total distance traveled between the testing days, the data were not combined into a single analysis. Statistical analyses included repeated-measures anova for the factor treatment. The repeated measures were total distance (at 5 and 10 min) and % center time (at 5 and 10 min). For comparison of vehicle and GA at individual time points, a t-test was used. […] This would be an additional means of obtaining desirable clinical effects, including anxiolytic, antidepressant, anti-epileptic, and induction of sleep.

[2] = system: GABAA receptors in macropatches excised from CGN; test: Macropatch recording from CGN; format: cell-based, rat; conditions: 10 μM; SR 10 μM at the extracellular face (pipette)
Procedure: Macropatch recording: Macropatch recording was performed with 1.5-2 MΩ electrodes filled with bath solution. The inside of excised patches was perfused with electrode solution containing the indicated reagents. SR was added to the electrode where indicated.

[3] = system: GABAA receptors in cerebellar granule neurons; test: Whole-cell patch clamp in cerebellar granule neurons (CGN); format: cell-based, rat
Procedure: as §1
Culture of rat CGN: CGN were cultured from mixed-sex Sprague-Dawley rats. Tissue was dissected from 6- to 8-day-old rats. Cells were suspended in minimal essential medium supplemented with 10% fetal calf serum, 26 mM glucose, 19 mM KCl, 2 mM 1-glutamine, and penicillin/streptomycin (50 IU/ml and 50 μg/ml). Cells were seeded on poly-1-lysine-coated coverslips and incubated in a humidified atmosphere containing 5% CO2 at 37° C. After 48 hours, the culture medium was replaced with minimal essential medium supplemented with 10% horse serum, 26 mM glucose, 19 mM KCl, 2 mM 1-glutamine, penicillin/streptomycin (50 IU/ml and 50 μg/ml), and 80 μM 1-fluorodeoxyuridine. Culture medium was exchanged every three days. All recordings were made from cells between days 6 to 9 in culture.
as §2, §3

[4] = system: depression-like behavior in mice; test: Chronic forced swim test (cFST), osmotic minipump; format: in vivo, mouse; conditions: fluoxetine 18 mg/kg/day, 14 days
Procedure: To fully assess the therapeutic potential of GLO1 inhibitors, it is necessary to utilize behavioral models sensitive to chronic administration. These models are highly informative as the therapeutic onset of antidepressant action mimics clinical onset in humans. pBBG was administered by osmotic minipumps (Alzet) for 14 days at various doses (0, 5, 10, 15, 30 and 60 mg/kg/day) to establish a dose response curve. Osmotic minipumps are ideal for chronic treatment as they release a constant volume at a very slow rate minimizing the stress of multiple injections.

[5] = system: anxiety-like behavior in C57BL6/J mice; test: OFT after bilateral microinjection into the basolateral amygdala (BLA); conditions: midazolam 4 mM, 0.5 ul bilateral into BLA, over 30 m
[6] = system: anxiety-like behavior and locomotion in mice; test: Open field (OF) test; format: in vivo, mouse; conditions: B6 mice
Procedure: OF test: Mice were placed into the center of the OF, and activity was monitored for five to ten minutes. The apparatus was illuminated to approximately 40 lux. Data were collected and processed using the manufacturer's software (AccuScan Instruments).
OF test: Ten minutes post-injection, mice were placed into the center of the OF. The apparatus was illuminated to approximately 40 lux. Behavior was measured as described above.
OF test replication studies: Ten to twenty minutes post-injection, mice were tested in the OF for five to ten minutes. In some experiments, behavior was scored as described above. In other experiments, mice were tested in the OF, and behavior was automatically scored by the Noldus Ethovision System. For mice tested in the Noldus system, the apparatus was illuminated to approximately 1,000 lux.
Chronic MG administration: For five days, mice were injected twice daily with vehicle or MG (4 mg/kg). Twelve hours after the final injection, mice were tested in the OF as described above.
Pure MG: Pure MG was obtained from Dr. John Termini at the City of Hope, Duarte, Calif. It was administered at the indicated doses by i.p. injection. Mice were tested as described above.
OF test: Two hours post-injection, mice were tested in the OF test as described above. The center size was 10×10 cm. The apparatus was illuminated to approximately 40 lux.

mice = test: Hypothermia (rectal temperature); format: in vivo, mouse; conditions: 300 mg/kg i.p., B6 mice
Procedure: Hypothermia: Thirty minutes post-injection, rectal temperature was measured with a digital thermometer.

[7] = system: motor coordination in mice; test: Balance beam test; format: in vivo, mouse; conditions: 300 mg/kg i.p., B6 mice
Procedure: The balance beam was 97 cm×9.5 mm and elevated to 46 cm. Mice were tested on the balance beam, and missteps were counted.
Balance beam: The balance beam test was performed as described above. Ten minutes post-injection, mice were tested on the balance beam, and missteps were recorded.

Structure (SMILES): CN1C(=O)CN=C(c2ccccc2)c2cc(Cl)ccc21 [Diazepam, diazepam]
- increase of GABA-evoked currents [1]: approximately 45%
- increase of MG-evoked currents [1]: approximately 60%

Structure (SMILES): O=CC(O)CO (stereo not drawn) [GA, glyceraldehyde]
- locomotor effect in the open field (locomotion in Cd-1 mice): has locomotor depressant effects

Structure (SMILES): NCCCC(=O)O [GABA, gamma-aminobutyric acid, reference compound]
- current on application to the intracellular face of macropatches [2]: did not elicit a current

Structure (SMILES): Br.COc1ccc(-c2ccc(=N)n(CCCC(=O)O)n2)cc1 [SR, reference compound]
- current on application to the intracellular face of macropatches [2]: this current was inhibited when SR was applied to the extracellular face
- inhibition of Vm changes induced by MG and GABA ([3]; 10 μM SR, 10 μM MG or GABA): > 95%
- inhibition of current-density changes induced by MG and GABA ([3]; 10 μM SR, 10 μM MG or GABA): > 95%

Structure (SMILES): CNCCC(Oc1ccc(C(F)(F)F)cc1)c1ccccc1 (stereo not drawn) [fluoxetine]
- depression-like behavior in the cFST [4]: reduces depression-like behavior in the forced swim test

Structure (SMILES): Cc1ncc2n1-c1ccc(Cl)cc1C(c1ccccc1F)=NC2 [midazolam]
- increase of GABA-evoked currents [1]: approximately 27%
- increase of MG-evoked currents [1]: approximately 40%
- center duration in the OFT [5]: increased center duration in the OFT

Structure (SMILES): CC(=O)C=O [pure MG, methylglyoxal]
- time in the center of the OF ([6]; pure MG 5 mg/kg, 10 min later): increased time in the center of the OF
- total distance traveled in the OF ([6]; pure MG 300 mg/kg): reduced total distance traveled in the OF
- inward currents in CGN ([3]; 10 μM): evoked inward currents in CGN
- hypothermia (mice): caused hypothermia
- footslips on the balance beam (ataxia) [7]: increased footslips on the balance beam

Structure (SMILES): Cc1ccc(-c2nc3ccc(C)cn3c2CC(=O)N(C)C)cc1 [zolpidem]
- increase of GABA-evoked currents [1]: approximately 17%
- increase of MG-evoked currents [1]: approximately 15%
